Values quoted from earlier work in patent US20250205258A1 (priority 2022, published 2025).

What was measured:
[1] = test system: ovarian cancer cells SK—OV-3; settings: concentration- and time-dependent, EGFR/AKT/ERK signaling pathway; cited from earlier work
[2] = test system: STAT3 signaling pathway; settings: by inhibiting the STAT3 signaling pathway; cited from earlier work
[3] = test system: neuroblastoma cells U87; settings: through both apoptosis and necrosis; cited from earlier work
[4] = test system: melanoma A375 cells; settings: concentration- and time-dependent; cited from earlier work
[5] = test system: liver cancer stem cell markers CD133, CD44, and ESA; settings: cited from earlier work

Compound: C[C@]12CC[C@H](O)C[C@H]1CC[C@@H]1[C@@H]2CC[C@]2(C)[C@@H](c3ccc(=O)oc3)CC[C@]12O [bufalin, Bufalin]
- proliferation of ovarian cancer cells SK—OV-3 [1]: inhibit the proliferation
- tumor microenvironment-mediated angiogenesis [2]: suppress tumor microenvironment-mediated angiogenesis
- death of neuroblastoma cells U87 [3]: induces the death
- proliferation of melanoma A375 cells [4]: inhibits the proliferation
- expression of liver cancer stem cell markers CD133, CD44, and ESA [5]: significantly inhibit
